Here are results for four compounds from patent EP0189002B1, “Treatment of gastrointestinal disorders using 5-HT3 antagonists” (SANDOZ AG, priority 1984, dated 1986).

The subject of experiment [1] is muscle strips from different parts of the guinea pig stomach. Description: Test A: field stimulation-induced contractions in guinea pig stomach muscle strips. The settings on record: facilitation of field stimulation-induced contractions. The text has this:
The compounds of the invention facilitate field stimulation-induced contractions in muscle strips from different parts of the guinea pig stomach and are therefore indicated to increase decreased peristaltic movements in the stomach and to enhance gastric emptying in vivo. The test is effected as follows:-Male Dunkin-Hartley guinea pigs, 340-450 g, which had been starved overnight, were killed by cervical transsection and the stomach removed and placed in Krebs-Henseleit solution (NaCI 118.0, KCI 4.75, KH2P04 1.2, MgS04 1.2, CaC12 2.5, glucose 10 mM). Segments were taken from the body (approximately 20 mm long, 3-4 mm wide) with dissection in a plane suitable to investigate tension changes in the circular muscle layer. Tissues were placed in 30 ml organ baths containing oxygenated (95% 02, 5% C02) Krebs-Henseleit solution at 37 C. One gram tension was applied to the tissues which were allowed to equilibrate for 45-60 min. before electrical stimulation. […] Responses were measured as changes in gram tension, but to allow easier comparison between treatments, data were converted to show changes as percentage values. The significance of differences between control responses and those obtained in the presence of interacting drugs was assessed using the Mann-Whitney U test.

Experiment [2] is described as follows: Test B: gastric emptying in conscious guinea pigs (X-ray passage of spheroids). The settings on record: enhancing gastric emptying. Format: in vivo. The method, then:
The compounds of the invention also induce gastric emptying as indicated in standard in vivo tests, e.g. in conscious guinea pigs having stomachs made atonic (i.e. having decreased peristaltic movements) by fasting and wherein the passage of glass spheroids was observed by X-ray techniques. The experiment is effected as follows: • Food was withdrawn for 14 hours before the measurement of gastric emptying. The experiment was conducted under low illumination which minimal noise and disturbance, and was carried out only by those experimentors who had daily contact with the guinea pigs and who carried out the initial training to accustom the guinea pigs to handling. Therefore, animals were subject to minimal stress. […] Gastric emptying was measured as the number of spheroids leaving the stomach.
Six guinea pigs were used at each dose level of drug and responses compared to those of guinea pigs receiving the appropriate vehicle. The significance of differences between drug and control responses was assessed using the Mann Whitney U test.

Experiment [3] is described as follows: Test C: inhibition of 5-hydroxytryptophan (5-HTP) induced increase in gastrointestinal motility (charcoal transit). Format: in vivo, NMRI mice. The conditions noted are these: 30 minutes before 5-HTP 3 mg/kg, mice. Here is the method:
In a further test the inhibition of the increase in gastrointestinal motility induced by 5-hydroxytryptophan (5-HTP) by the compounds of the invention was observed.
Male NMRI mice (18-32 g in weight) are deprived of food 20 hours before the test. Water is not limited. The animals are separated by a barrier from their straw and access to feces. At the beginning of the test the animals are separated in individual single cages and water is removed.
All animals were treated with the test compound or saline. l.p. administration was used. Injection volume was 0.1 ml/10 g. 30 minutes after pre-treatment 5-HTP or saline was administered. Injection volume 0.1 ml /10 g. Dose 3 mg/kg. At the same time charcoal was administered perorally (10% suspension in water; 0.1 ml/10g). 45 minutes after the start of the experiment the animals were killed. The intestines from the stomach to the rectum were examined. For each animal the transit distance of the front of the charcoal meal along the intestine was measured. The distance was ascertained as a percentage of the whole intestinal length. Groups of at least 3 animals were used.

Experiment [4] is classed as in vivo, NMRI mice. The settings on record: cholera toxin challenged mice.
Experiment [5] deals with high affinity 5-HT receptor. Briefly: 5-HT induced contraction of isolated longitudinal muscle of guinea pig ileum, high affinity receptor. The conditions noted are these: guinea pig ileum longitudinal muscle strip, 5-HT as agonist. The source says: (§1) The isolated longitudinal muscle of the guinea pig ileum with its adhering myenteric plexus is a well established model which permits investigation of the mechanism of action of various neurtransmitters.
(§2) Male guinea pigs (200-400 g) were killed by a blow on the head and exsanguinated. A length of small intestine was removed about 2 cm from the ileo-caecal valve. The mesentery was carefully removed and the ileum was stretched over a glass rod. By stroking tangentially away from the mesenteric attachment with a wad of cotton wool, the longitudinal muscle layer was separated and stripped from the unterlying circular muscle. Longitudinal muscle strips, 3-4 cm length, were mounted in a 10 ml organ bath containing Tyrode solution at 37 ° C and bubbled with 5% carbon dioxide in oxygen. […] Contractions were recorded with an isotonic pendulum lever. […]
(§3) Non-cumulative concentration-response curves for 5-HT were established by adding increasing concentrations of the agonist to the organ bath at intervals of at least 15 min. […] The contractions expressed as percentage of the maximal response to 5-HT obtained from several preparations were plotted as mean values in order to obtain log-concentration-response curves. Inhibition constants were expressed in the form of pA2 values which were graphically determined according to conventional methods (Arunlakshana and Schild, 1959. Mc Kay 1978). […]

For experiment [6], the target named is T1, low affinity 5-HT receptors (Cavia porcellus, UniProt O70212).
T1 construct: Longitudinal muscle strips, 3-4 cm length, were mounted in a 10 ml organ bath; from tissue; host or cells: guinea pig ileum longitudinal muscle with adhering myenteric plexus
T1 sequence (O70212 20-490): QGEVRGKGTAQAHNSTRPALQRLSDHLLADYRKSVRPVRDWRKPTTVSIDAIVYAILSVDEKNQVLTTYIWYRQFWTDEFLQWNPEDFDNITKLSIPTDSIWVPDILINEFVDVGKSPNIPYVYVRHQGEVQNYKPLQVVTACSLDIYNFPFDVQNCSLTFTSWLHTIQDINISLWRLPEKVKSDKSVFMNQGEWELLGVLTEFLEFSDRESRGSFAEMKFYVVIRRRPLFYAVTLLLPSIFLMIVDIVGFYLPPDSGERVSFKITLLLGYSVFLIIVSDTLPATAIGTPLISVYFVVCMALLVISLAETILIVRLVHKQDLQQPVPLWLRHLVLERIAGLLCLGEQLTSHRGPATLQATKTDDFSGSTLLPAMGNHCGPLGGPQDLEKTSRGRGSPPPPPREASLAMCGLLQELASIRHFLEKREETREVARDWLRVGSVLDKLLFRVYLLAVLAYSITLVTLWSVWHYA
Briefly: 5-HT induced contraction of isolated longitudinal muscle of guinea pig ileum, low affinity receptor. The settings on record: guinea pig ileum longitudinal muscle strip, 5-HT as agonist.
Description: as §1, §2, §3

Another experiment addresses dopamine binding sites. The settings on record: tritiated haloperidol; cited from earlier work.

Take `CN1[C@@H]2CC[C@H]1C[C@@H](OC(=O)c1c[nH]c3ccccc13)C2` [Compound E, Indol-3-yl carboxylic acid endo-8-methyl-8-aza-bicyclo[3,2,1]-oct-3-yl ester]: the “times more active than metoclopramide” value in experiment [1] is 100 times; in experiment [2], “about 50 times”. Also, the ED50 i.p. in experiment [3] turned out to be 0.07 mg/kg. Moreover, the “effect of an increase in the dose on stomach contents” value in experiment [4] was “did not lead to a reduction in the stomach contents”. The “pD'2 high affinity receptor” value in experiment [5] is “pD'2 = 5.7”. For the same compound, the “pA2 low affinity receptor” value in experiment [6] was “pA2 = 7.9”.
In experiment [3] (Mus musculus, i.p.), `CN1[C@@H]2CCC[C@H]1C[C@@H](OC(=O)c1csc3ccccc13)C2` [Compound F, Benzo[b]thiophen-3-yl carboxylic acid endo-9-methyl-asa-bicyclo-[3,3,1]non-3-yl ester] came in with an ED50 of 0.025 mg/kg. For the same compound, in experiment [5], the “pD'2 high affinity receptor” value is reported as “pD'2 = 5.9”. Besides, the “pA2 low affinity receptor” value in experiment [6] is recorded as “pA2 = 9.4”.
`CN1[C@@H]2CCC[C@H]1C[C@@H](OC(=O)c1cn(C)c3ccc(F)cc13)C2` [Compound G, 5-fluoro-1-methyl-indol-3-yl carboxylic acid endo-9-methyl-9-aza-bicyclo[3,3,1]non-3-yl ester] showed an ED50 i.p. in experiment [3] of 0.002 mg/kg.
With `CCN(CC)CCNC(=O)c1cc(Cl)c(N)cc1OC` [metoclopramide], the concentration for half-maximal inhibition (IC50) at dopamine binding sites is roughly 170 nM.

One may read the ED50 as the dose that gives a 50% effect, or the effect in half of the subjects. Low values mean greater potency, high ones weaker potency. Broadly, the IC50 is the concentration that gives 50% inhibition.
